Data on one molecule can be found in US20240245709A1, “[…] USE IN TREATMENT OF E[…] EPILEPTICUS” (MARINUS PHARMACEUTICALS, INC., priority 2021, published 2024).

Data set [1] can be described thus: Human plasma pharmacokinetics following oral administration. It is filed as in vivo. As to the method: (§1) Ganaxolone is insoluble in water. […] 3.5 mg/mL, and 3.1 mg/mL, respectively. Ganaxolone has a relatively long half-life—approximately 20 hours in human plasma following oral administration (Nohria, V. and Giller, E., Neurotherapeutics, (2007) 4(1): 102-105). Furthermore, ganaxolone has a short Tmax, which means that therapeutic blood levels are reached quickly.

Data set [2] in a line: Solubility of ganaxolone in solvents. It is filed as physicochemical. As to the method:
as §1
Ganaxolone formulations suitable for parenteral administration in the methods of the present invention may comprise physiologically acceptable sterile aqueous or non-aqueous solutions, dispersions, suspensions or emulsions, and sterile powders for reconstitution into sterile injectable solutions or dispersions. Examples of suitable aqueous and non-aqueous carriers, diluents, solvents, or vehicles including water, ethanol, polyols (propylene glycol, polyethylene-glycol, glycerol, cremophor and the like), suitable mixtures thereof, vegetable oils (such as olive oil) and injectable organic esters such as ethyl oleate. Additionally, ganaxolone can be dissolved at concentrations of >1 mg/ml using water soluble beta cyclodextrins (e.g. beta-sulfobutyl-cyclodextrin and 2-hydroxypropylbetacyclodextrin). A particularly suitable cyclodextrin is a substituted-β-cyclodextrin is Captisol®. […]

Data set [3] deals with CYP3A4/5. In words: Metabolism and effect of strong CYP inducers on ganaxolone clearance (in vitro data and human PK data).
The target of data set [4] is T1, progesterone receptor (Homo sapiens, UniProt P06401).
T1 sequence (P06401 1-933): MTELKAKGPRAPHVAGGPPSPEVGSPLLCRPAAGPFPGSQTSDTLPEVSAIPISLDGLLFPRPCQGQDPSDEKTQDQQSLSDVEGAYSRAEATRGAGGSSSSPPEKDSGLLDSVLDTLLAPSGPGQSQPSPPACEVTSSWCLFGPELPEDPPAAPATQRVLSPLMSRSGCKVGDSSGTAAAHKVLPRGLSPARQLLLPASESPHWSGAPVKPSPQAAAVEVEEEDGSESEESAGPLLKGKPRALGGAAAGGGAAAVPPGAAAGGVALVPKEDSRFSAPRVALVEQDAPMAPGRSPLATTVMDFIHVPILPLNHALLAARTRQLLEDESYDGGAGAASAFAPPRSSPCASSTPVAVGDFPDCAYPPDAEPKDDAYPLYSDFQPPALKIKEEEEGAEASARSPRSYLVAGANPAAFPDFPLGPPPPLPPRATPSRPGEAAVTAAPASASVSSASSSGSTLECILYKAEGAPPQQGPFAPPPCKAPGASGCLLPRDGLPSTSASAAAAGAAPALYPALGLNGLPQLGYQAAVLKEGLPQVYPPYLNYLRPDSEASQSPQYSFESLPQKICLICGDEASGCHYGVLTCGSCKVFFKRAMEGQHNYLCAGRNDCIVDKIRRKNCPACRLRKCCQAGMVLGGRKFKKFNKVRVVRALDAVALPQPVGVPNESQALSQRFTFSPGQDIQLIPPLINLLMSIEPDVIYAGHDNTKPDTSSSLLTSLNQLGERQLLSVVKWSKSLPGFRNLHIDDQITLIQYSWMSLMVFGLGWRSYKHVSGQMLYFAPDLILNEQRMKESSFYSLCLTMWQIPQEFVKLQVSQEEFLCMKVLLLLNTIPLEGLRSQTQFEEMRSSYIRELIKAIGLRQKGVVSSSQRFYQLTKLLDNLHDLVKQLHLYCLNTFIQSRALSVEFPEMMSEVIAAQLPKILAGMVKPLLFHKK
The data set can be described thus: Progesterone receptor activation. To be noted: directly or indirectly, via metabolic conversion. The text has this: Ganaxolone (3α-hydroxy-3β-methyl-5α-pregnan-20-one) is a 3β-methylated synthetic analogue of the endogenous neurosteroid allopregnanolone with similar biological activity (Carter et al., (1997), The Journal of Pharmacology and Experimental Therapeutics, 280:1284-1295), but it is designed to not activate nuclear (classical) progesterone receptors.

Data set [5] can be described thus: Clinical safety in the ganaxolone development program (placebo-controlled Phase 1, 2 and 3 studies). The format is in vivo, human. The source says: In the completed placebo-controlled Phase 1, 2, and 3 studies, 0.32% of subjects who received ganaxolone and 0.46% of subjects who received placebo developed elevated LFTs during the study (>3×ULN AST and/or ALT). A subject participating in the ganaxolone paediatric epilepsy study developed liver failure, which was not considered to be related to ganaxolone. The subject was diagnosed with short bowel syndrome, liver steatosis and IgG-cholangitis, which were considered to be the causal factors for the subject's liver failure. There have been no other cases of Hy's Law or liver failure in the ganaxolone development program. […] After cessation of the dosing, plasma ganaxolone levels are expected to drop rapidly, but it is possible that low sub-therapeutic levels persist for several days as ganaxolone is slowly released from tissues.
(§2) Ganaxolone has been administered to infants with severe forms of epilepsy as early as 4 months of age. In clinical trials involving administration of ganaxolone over several weeks, the study drug has been tapered off over a 1 to 2-week period.

Data set [6] can be described thus: Toxicology studies in animals focusing on prenatal and neonatal development. It is filed as in vivo.
Description: as §2

The conditions of data set [7]: human plasma, oral administration; cited from earlier work.

Turning to `CC(=O)[C@H]1CC[C@H]2[C@@H]3CC[C@H]4C[C@](C)(O)CC[C@]4(C)[C@H]3CC[C@]12C` [ganaxolone, 3α-hydroxy-3β-methyl-5α-pregnan-20-one], the Tmax result in data set [1] (human, in vivo) was “short”. Besides, the oral bioavailability result in data set [1] (in contrast to allopregnanolone) was “orally bioavailable”. Besides, in data set [2] (aqueous with cosolvent or surfactant or cyclodextrin, beta-sulfobutyl-cyclodextrin and 2-hydroxypropylbetacyclodextrin, read-out: concentration dissolved using water soluble beta cyclodextrins), the solubility was above 1000 µg/mL. In addition, in data set [2] (water), the solubility in water entry is reported as “insoluble”. In addition, the metabolizing enzyme result in data set [3] (human, in vivo) is “metabolized by CYP3A4/5”. The “lowering in overall ganaxolone levels and exposure” value in data set [3] (subjects taking strong CYP inducers (carbamazepine and phenytoin)) was around 45%. Also, the “activation of the progesterone receptor” value in data set [4] was “does not activate”. Moreover, in data set [5] (clinical trials, several weeks of administration, tapered off over 1 to 2 weeks), the “withdrawal symptoms after cessation” value is given as “no reports of withdrawal symptoms”. In addition, the “subjects who developed elevated LFTs (>3×ULN AST and/or ALT)” value in data set [5] (completed placebo-controlled Phase 1, 2 and 3 studies) was 0.32%. The “trends in ECG intervals, vital signs, physical or neurological examinations” value in data set [5] (development program overall) was “no clinically significant trends”. In addition, the “excretion to breast milk” value in data set [5] (ganaxolone and its metabolites) was “excreted to breast milk”. Also, the “plasma concentration that can induce anesthesia” value in data set [5] (subject, intravenous administration) is recorded as “above 1000 ng/ml”. Moreover, the “prenatal and neonatal developmental toxicity” value in data set [6] was “have not demonstrated toxicities”. Further, the half-life entry in data set [7] is “approximately 20 hours”.
